PubChem BioAssay (NCI)
Values joined by “and” are separate entries in the source; they are usually repeats but may differ in a detail not shown here. Equal values may be shown once.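 How tested: cells in 96-well plates exposed to compound for 48 hours at five concentrations. GI50 marks 50% less growth. At the TGI there is no net growth.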

Legend:
Test in all cases: NCI-60 cell line screen, 48 h
UO-31 renal = tested on: UO-31 renal
NCI/ADR-RES ovarian = tested on: NCI/ADR-RES ovarian
HL-60(TB) leukemia = tested on: HL-60(TB) leukemia
HS 578T breast = tested on: HS 578T breast
HT29 colon = tested on: HT29 colon
IGROV1 ovarian = tested on: IGROV1 ovarian
786-0 renal = tested on: 786-0 renal
NCI-H460 lung = tested on: NCI-H460 lung
PC-3 prostate = tested on: PC-3 prostate
SF-295 CNS = tested on: SF-295 CNS

Compound | TGI (UO-31 renal) | TGI (NCI/ADR-RES ovarian) | TGI (HL-60(TB) leukemia) | TGI (HS 578T breast) | TGI (HT29 colon) | TGI (IGROV1 ovarian) | TGI (786-0 renal) | TGI (NCI-H460 lung) | TGI (PC-3 prostate) | TGI (SF-295 CNS) | GI50 (UO-31 renal) | GI50 (NCI/ADR-RES ovarian) | GI50 (HL-60(TB) leukemia) | GI50 (HS 578T breast) | GI50 (HT29 colon) | GI50 (IGROV1 ovarian) | GI50 (786-0 renal) | GI50 (NCI-H460 lung) | GI50 (PC-3 prostate) | GI50 (SF-295 CNS)
CC(=O)C1=C(O)/C(=C\c2ccco2)OC1=O | > 10 µM | > 10 µM | > 10 µM | > 10 µM | > 10 µM | > 10 µM | > 10 µM | > 10 µM | > 10 µM | > 10 µM |  |  |  |  |  |  |  |  |  | 
CC(C)n1nc(C#Cc2cccc(NC(=O)c3cccc(C(F)(F)F)c3)c2)c2c(N)ncnc21 | 6.1 µM | > 100 µM | > 100 µM | 1.88 µM | > 100 µM | 1.59 µM | 14.3 µM | > 100 µM | > 100 µM | > 100 µM | 0.601 µM | 2.83 µM | 0.156 µM | 0.216 µM | 0.485 µM | 0.333 µM | 2.65 µM | 3 µM | 2.91 µM | 2.88 µM
O=[N+]([O-])O.[NH-]C1CCCCC1[NH-].[NH-]C1CCCCC1[NH-].[NH-]C1CCCCC1[NH-].[OH-].[OH-].[OH-].[Pt+4].[Pt+4].[Pt+4] (stereo unspecified) | 15.5 µM | > 59.3 µM | 4.01 µM | > 61.9 µM |  | 19.4 µM | 3.19 µM | 7.07 µM | 40.9 µM | > 66.8 µM | 0.373 µM | 1.15 µM | 1.09 µM | 12.1 µM | 0.0889 µM | 0.258 µM | 0.0408 µM | 0.241 µM | 0.756 µM | 0.971 µM
O=c1[nH]c2cc(O)ccc2n2cc3c(F)cccc3c12 | > 100 µM | > 100 µM | > 100 µM | > 100 µM | > 100 µM | > 100 µM | > 100 µM | > 100 µM | > 100 µM | > 100 µM | 0.995 µM | 0.698 µM | 6.55 µM | 3.85 µM | 5.33 µM | 2.16 µM | 4.29 µM | 0.451 µM | 4.54 µM | 2.85 µM
CC(C)(C)NCCC(O)c1cc(C(F)(F)F)nc2c(C(F)(F)F)cccc12 (stereo unspecified) | 1.34 µM | 15.2 µM | 27.5 µM | 34.4 µM | 20.1 µM | 23.8 µM | 19.6 µM | 16.8 µM | 20.6 µM | 22.6 µM |  |  |  |  |  |  |  |  |  | 
COc1cc(/C=C\c2cccnc2Nc2ccccc2)cc(OC)c1OC | 72.8 µM | 63.2 µM | 36.7 µM | > 100 µM | 98.3 µM | > 100 µM | 44.1 µM | 26.7 µM | 75.1 µM | 35.9 µM | 5.09 µM | 4.44 µM | 8 µM | 13.2 µM | 5.51 µM | 12.6 µM | 5.98 µM | 3.61 µM | 7.81 µM | 4.92 µM
COc1cc(OC)c(/C=C/S(=O)(=O)Cc2ccc(OC)c(NCC(=O)O)c2)c(OC)c1 | > 100 µM | > 3.12 µM |  | > 100 µM | > 8.57 µM and 1.4 µM | > 100 µM | > 100 µM | > 100 µM | > 100 µM | > 100 µM |  | 0.0678 µM and 0.0332 µM | 0.156 µM and 0.355 µM | 0.103 µM and 0.0605 µM | 0.334 µM and 0.328 µM | 0.152 µM and 0.244 µM | 0.177 µM and 0.144 µM | 0.114 µM and 0.0451 µM | 0.119 µM and 0.0486 µM | 0.0687 µM and 0.0446 µM
CC(=O)Nc1ccc(-n2cnc3cc(-c4ccc(OCCN5CCCCC5)cc4)ccc32)cc1 | 7.06 µM | 22.5 µM | 18.2 µM | 10.8 µM | 3.92 µM | 11.5 µM | 1.7 µM | 5.3 µM | 9.83 µM | 10.6 µM | 2.33 µM | 7.75 µM | 5.26 µM | 4.15 µM | 1.12 µM | 4.93 µM | 0.803 µM | 1.49 µM | 3.91 µM | 5.5 µM
CCCCCCN(CCCCCC)CC(O)c1cccc2ccc(Cl)cc12 (stereo unspecified) | 19.7 µM | 25.1 µM | 24.6 µM | 26.4 µM | 18.5 µM | 23.8 µM | 23.7 µM | 19.6 µM | 25 µM | 22.1 µM | 4.85 µM | 11.4 µM | 9.63 µM | 8.36 µM | 3.86 µM | 10.3 µM | 10.9 µM | 6.63 µM | 9.59 µM | 6.32 µM
C=CC[PH+](c1ccccc1)c1ccccc1.C=CC[PH+](c1ccccc1)c1ccccc1.[Cl][Pt][Cl] | 16.4 µM | > 100 µM | 14 µM | 48.6 µM | 32.8 µM | 13.9 µM | 25.5 µM | 30.1 µM | 24.6 µM | > 100 µM | 3.95 µM | 25.1 µM | 3.34 µM | 13.4 µM | 8.98 µM | 3.68 µM | 12.6 µM | 12.8 µM | 7.11 µM | 37.9 µM
COc1ccc(S(=O)(=O)NCCNc2nccc(-c3c(-c4ccccc4)nc4sccn34)n2)cc1 | > 100 µM | > 100 µM | > 100 µM | 47.4 µM | > 100 µM | > 100 µM | > 100 µM | > 100 µM | > 100 µM | > 100 µM | 0.706 µM | 5.18 µM | 2.87 µM | 2.18 µM | 1.72 µM | 2.13 µM | 3.42 µM | 1.24 µM | 1.64 µM | 6.52 µM
C=C(CC1(CC(=C)c2ccc(C(=O)O)cc2)C(=O)N(C)C(=O)N(C)C1=O)c1ccc(C(=O)O)cc1 | > 100 µM | > 100 µM | > 100 µM | > 100 µM | > 100 µM | > 100 µM | > 100 µM | > 100 µM | > 100 µM | > 100 µM | 57.2 µM | 63.8 µM | 34.4 µM | 67.8 µM | 48.7 µM | 47.4 µM | > 100 µM | > 100 µM | 63.2 µM | > 100 µM
CC(=O)N[C@@H]1CCC[C@H](C(=O)Nc2cc(-c3cnn4c3CC(C)(C)C4)c(Cl)cn2)C1 |  | > 100 µM | < 0.017 µM | 20.1 µM | > 100 µM | > 100 µM | 29.6 µM | 12.4 µM | > 100 µM | > 100 µM | 0.0241 µM | 0.199 µM | < 0.01 µM | < 0.01 µM | < 0.0108 µM | < 0.01 µM | < 0.01 µM | < 0.0115 µM | < 0.01 µM | < 0.0125 µM
Cc1ccc(OCCCCCCNCCO)c(C)c1 | 26.4 µM | 37.1 µM | 1.45 µM | 35.5 µM | 25.6 µM | 35.3 µM | 28.8 µM | 30.8 µM | 29.7 µM | 39 µM | 12.1 µM | 16.3 µM | 0.323 µM | 14.3 µM | 11.3 µM | 16.2 µM | 14 µM | 14.9 µM | 14 µM | 17.8 µM
